For 94 molecules, cytotoxicity results are on record in ChEMBL document CHEMBL3507680, “University of Dundee, Gates Library screen for HepG2 cell viability”.

The nature of the data set: Human HepG2 cell viability assay in 384 well format. The data set is classed as toxicity, cell-based. Further details: dose 125 nL, time 70.5 hour; concentration not given beside the values. The following applies: HepG2 cells, read-out: Inhibition.
`COc1ccc(F)cc1S(=O)(=O)N1CCC(OC)CC1`: the cytotoxicity at 70.5 h is -2.88%. Take `CC(=O)c1cccc(NC(=O)Cn2cnc(-c3cccs3)cc2=O)c1`: the cytotoxicity at 70.5 h is -1.2%. Then `O=C(NCC1(CO)CC1)c1ccccc1Cl`, with -14.1%; and `O=C(NCC1(CO)CC1)c1ccccc1C(F)(F)F`, with -9.3%; and `COc1nn(C)cc1C(=O)NCC(=O)Nc1cccnc1`, with -10.6%. With `O=S(=O)(Cc1ccc(F)cc1)N1CCN(CC(O)C2CC2)CC1` (centres undefined), the cytotoxicity at 70.5 h was -1.75%. Then `COc1ncccc1C(=O)N1CC(c2nc(-c3ccccn3)no2)C1`, with 19.5%; and `Fc1cccc(CNCC2Cn3nncc3CO2)c1` (centres undefined), with -7.02%; and `O=C(c1cocn1)N1CCC2(CC1)CC(OCC1CC1)CO2` (centres undefined), with -8.99%. As for `CN(Cc1ccncc1)C1CC2(CCN(C(=O)c3ccnnc3)CC2)C1`, the cytotoxicity at 70.5 h was -9.02%.

Turning to `CCN1CCC2(CC1)CN(C(C)=O)c1ccc(C)cc12`, the cytotoxicity at 70.5 h was -7.76%. Next, `CN(Cc1cccnc1)C1CC2(CCN(C(=O)c3cnccn3)CC2)C1`: -7.42%; `Cc1cc(C(=O)N2CC[C@@H]3CO[C@@H](CN4CCCC4)[C@@H]3C2)no1`: -7.99%; `CCS(=O)(=O)N1CCN(C(=O)C(C)C)CC2(CC(=O)N(C)C2)C1` (centres undefined): -5.47%. Regarding `Cc1nc(CNCC2COCc3c(-c4ccoc4)nnn3C2)cs1` (centres undefined), the cytotoxicity at 70.5 h is -6.23%.

For the molecule `CS(=O)(=O)N1C[C@@H]2COC[C@@H](CC(=O)N3CCCO3)[C@@H]2C1`, the cytotoxicity at 70.5 h is -8.58%. For the molecule `COc1nn(C)c2c1CCCN(S(=O)(=O)c1cccs1)C2`, the cytotoxicity at 70.5 h was 12.6%. Then `CN1C[C@@H]2CN(C(=O)C3CCOC3)C[C@@H]2C1=O` (some centres undefined), with 9.81%. Next, `O=C(c1ccoc1)N1CCC2(CC1)COC(COCc1ccccn1)C2` (centres undefined): 10.2%. As to `CN(C)C(=O)N1CC2(CCN(S(C)(=O)=O)CC2)c2ccccc21`, the cytotoxicity at 70.5 h was -1.58%. Next, `O=C(Cc1ccsc1)N1CCC2(CCCN(CC3CCOCC3)C2)C1` (centres undefined): 1.53%; `CN1C[C@@H]2CN(C(=O)C3CC=CC3)C[C@@H]2C1=O`: -5.58%; `COCCN1CCC2(COCc3c(C)nc(N(C)C)nc32)C1` (centres undefined): -2.27%. Turning to `CN1CCN(Cc2cn3c(n2)CN(CC2CC2)CC3)CC1`, the cytotoxicity at 70.5 h was -2.8%. For the molecule `COc1cccc(S(=O)(=O)N2CCCc3c(OC)nn(C)c3C2)c1`, the cytotoxicity at 70.5 h is -5.16%. As for `CS(=O)(=O)N1Cc2nccn2CC(CN2CCCC2)C1` (centres undefined), the cytotoxicity at 70.5 h is -3.59%. Next, `CN(C)C(=O)COCc1ncn2c1CN(c1ncc(F)cn1)CCC2`: 9.71%; `Cc1cccc(N2CC[C@@H]3[C@@H](CO[C@H]3CNS(C)(=O)=O)C2)n1`: 10.6%. Then `CC(C)C(=O)N1CCCC12CCCN(C(=O)c1ccno1)C2` (centres undefined), with 13.3%; and `Cc1noc([C@@H]2CCO[C@@H]3CCN(C(=O)Cc4ccsc4)C[C@@H]32)n1`, with 11.3%. Then `Cc1ccc(N2CC[C@@H]3CN(Cc4c[nH]cn4)C[C@@H]3C2)nn1`, with 11%; and `CN(C)C(=O)N1CCN(C(=O)c2cccc(Cl)c2)CC2(CNC(=O)C2)C1` (centres undefined), with -4.76%.

As to `Cc1nnc([C@@H]2CCO[C@@H]3CCN(C(=O)Cc4ccsc4)C[C@@H]32)o1`, the cytotoxicity at 70.5 h is -5.87%. With `Cc1ccccc1CNC(=O)N1C[C@H]2C[C@H](C(=O)N3CCCC3)[C@@H](C1)O2`, the cytotoxicity at 70.5 h was -3.56%. Next, `Cc1ccccc1CNC(=O)N1C[C@H]2C[C@H](C(=O)N(C)C)[C@@H](C1)O2`: -5.69%; `O=C(C[C@H]1[C@H]2CN(C(=O)Cc3ccccn3)C[C@@H]12)Nc1cccnc1`: -1.03%; `CS(=O)(=O)N1CCN(C(=O)c2cccc(Cl)c2)CC2(CNC(=O)C2)C1` (centres undefined): -0.473%. Then `CC(C)C(=O)N1CCc2nc(C(=O)Nc3cccnc3)sc2CC1`, with -2.65%; and `COCC(=O)N1CCc2nc(C(=O)Nc3cccnc3)sc2CC1`, with -2.18%; and `Cc1ccc(N2CC[C@@H]3[C@@H](CO[C@H]3CNC(=O)c3ccco3)C2)nn1`, with -1.79%. Next, `Cc1cc(C(=O)N2CCC3(CC2)C(=O)NCCN3CC(C)C)c(C)o1`: -2.92%; `Cc1[nH]/c(=N/C(=O)Cn2nc(N3CCOCC3)ccc2=O)sc1C`: -6.43%; `CCOC(=O)N1CCN(C(=O)c2snnc2-c2ccccc2)CC1`: -9.63%. `Cc1ccc(Cn2c(=O)[nH]c3cccnc3c2=O)cc1`: the cytotoxicity at 70.5 h is -8.02%.

As to `CCN1CCc2c(sc3c2C(=O)NC(/C=C\c2ccccc2)N3)C1` (centres undefined), the cytotoxicity at 70.5 h is 16.4%. Consider `Cn1c(=O)c2sccc2n(CC(=O)Nc2cccc(Cl)c2)c1=O`, for which the cytotoxicity at 70.5 h amounted to 8.96%. Then `CC(C)c1cccc(NC(=O)Cn2c(=O)n(C)c(=O)c3sccc32)c1`, with 5.39%; and `Nc1ncccc1C(=O)NCc1cccc(Br)c1`, with 13.7%; and `Cc1cccc(CNC(=O)c2cccnc2N)c1`, with 18%. Next, `NC1CCN(c2nccn3c(=O)[nH]nc23)CC1`: 22.8%. As for `COc1ccc(-c2ccnc3nc(N4CCCCC4)[nH]c(=O)c23)cc1`, the cytotoxicity at 70.5 h is -9.32%. Next, `O=c1[nH]c(N2CCCCC2)nc2nccc(-c3ccc4c(c3)OCO4)c12`: -12.9%; `COc1ccc(-c2ccnc3nc(N4CCCC4)[nH]c(=O)c23)cc1OC`: -9.78%; `COc1cccc(-c2ccnc3nc(N4CCCCC4)[nH]c(=O)c23)c1`: 17.7%. As to `O=C(CC1Cn2ncnc2NC1=O)Nc1ccccc1` (centres undefined), the cytotoxicity at 70.5 h was -8.16%.

Consider `CCOCCCNC(=O)CN(c1ccc(C)c(C)c1)S(C)(=O)=O`, for which the cytotoxicity at 70.5 h is -9.65%. In the case of `CC(C)NC(=O)c1ccc2c(c1)nc1n2CCN(Cc2ccccc2)C1`, the cytotoxicity at 70.5 h is -12.9%.

On to `O=C1CSC(c2ccncc2)c2c[nH]nc2N1` (centres undefined), for which the cytotoxicity at 70.5 h was -8.06%. Then `O=C1CSC(c2ccc3c(c2)OCO3)c2cn[nH]c2N1` (centres undefined), with -4%; and `CCOc1ccc(C2SCC(=O)Nc3c2c(=O)[nH]n3C(C)C)cc1` (centres undefined), with -11.8%. As to `CCOCCCNC(=O)CN(c1ccc(F)c(F)c1)S(C)(=O)=O`, the cytotoxicity at 70.5 h was -12.9%. Next, `O=C(Nc1ccccc1F)C1=NOC2(CCNCC2)C1`: -2.62%. As for `O=C(Nc1ccccc1)C1=NOC2(CCNCC2)C1`, the cytotoxicity at 70.5 h is -6.36%. With `COCCN1CCC12CCN(C(=O)Cc1cccs1)C2` (centres undefined), the cytotoxicity at 70.5 h is -7.8%.

Consider `Cc1cc(CN2C[C@@H]3COC[C@]3(COCc3csc(C)n3)C2)no1`, for which the cytotoxicity at 70.5 h is 2.9%.

As to `Cc1ccnc(OC[C@@]23CCO[C@@H]2CCN(C2CCC2)C3)n1`, the cytotoxicity at 70.5 h is 4.5%.

For the molecule `Cc1ccnc(OC[C@@]23CCO[C@@H]2CCN(c2ncccn2)C3)n1`, the cytotoxicity at 70.5 h was determined as 5.78%. Next, `CCS(=O)(=O)NC[C@]12COC[C@H]1CN(Cc1ccsc1)C2`: 7.84%; `Cn1cccc1C(=O)N1CCC2(CCCN2c2ncccn2)CC1`: -13.8%.

Take `CC(C)CN1CC[C@@H]2[C@@H]1CCN2S(=O)(=O)c1cn(C)cn1`: the cytotoxicity at 70.5 h was -10.9%. Take `COCCN1CCC2(CC1)CN(C(C)=O)c1ccc(C)cc12`: the cytotoxicity at 70.5 h was determined as 4.91%.

In the case of `Cc1ncnc2c1CCN(Cc1nccs1)CC2`, the cytotoxicity at 70.5 h was -5.22%. For `Cc1ccc(N2CCC3(CC2)CNC(=O)CO3)nn1`, the cytotoxicity at 70.5 h is -4.26%.

In the case of `Cc1nc(COC[C@@]23CCC[C@@H]2CN(Cc2nccs2)C3)cs1`, the cytotoxicity at 70.5 h was -7.37%. Next, `CS(=O)(=O)NC[C@]12COC[C@H]1CN(CCc1ccccc1)C2`: -8.06%; `CN1CCCCC12CCN(C(=O)c1cccn1C)CC2`: -7.36%; `O=C1COC2(CCN(c3ncccn3)CC2)CN1`: -1.8%. Then `CCn1nc(C)cc1C(=O)N1CC[C@H](OC)[C@H]2CN(CC3CC3)C[C@H]21`, with 7.23%.

With `Cc1nc(N2CCOCC2)nc2c1COCC21CCN(CC2CC2)C1` (centres undefined), the cytotoxicity at 70.5 h came to 8.58%. Consider `CS(=O)(=O)N1CCC2(CCCN(Cc3ccccn3)C2)CC1`, for which the cytotoxicity at 70.5 h worked out at 10.3%.

For `CN(C)C(=O)COCc1nn(C)c2c1CCN(Cc1ccco1)C2`, the cytotoxicity at 70.5 h is -5.57%. Turning to `c1cnc(NC[C@@H]2CCC[C@@H]3CN(Cc4csnn4)C[C@@H]32)nc1`, the cytotoxicity at 70.5 h is -9.2%. Then `Fc1ccccc1CN1CCCC2(CCN(c3ncccn3)CC2)C1`, with -3.46%. Next, `Cc1nc([C@H]2C[C@@H]3CCN(Cc4scnc4C)C[C@H]3O2)no1`: -5.9%; `Cn1nc(Cn2cccn2)c2c1CN(C1CCOC1)C2` (centres undefined): -6.25%.

In the case of `Cc1ccc(N2CC[C@@H]3[C@@H]2CCN3C(=O)c2cscn2)nn1`, the cytotoxicity at 70.5 h is -4.17%. Then `CCS(=O)(=O)NC[C@]12COC[C@H]1CN(Cc1cccnc1)C2`, with 7.34%; and `Cn1nc(COc2cccnc2)c2c1CCN(Cc1ccco1)C2`, with 4.18%. Take `Cc1ccc(CN2CCCC3(CCN(Cc4ccoc4)CC3)C2)cc1`: the cytotoxicity at 70.5 h came out at 15.4%. For the molecule `CN(C)C[C@@H]1OC[C@H]2CN(Cc3ccoc3)CC[C@H]21`, the cytotoxicity at 70.5 h was -0.512%. Then `CN(Cc1ccncc1)C1CC2(CCN(c3ncc(F)cn3)CC2)C1`, with 2.52%. Turning to `CN(Cc1cccnc1)C1CC2(CCN(c3ncc(F)cn3)CC2)C1`, the cytotoxicity at 70.5 h is -5.89%. Then `Cc1cnc(N2CCC3(CC2)CC(N(C)Cc2ccncc2)C3)nc1`, with -5.66%; and `Fc1cnc(N2CC[C@@H]3CN(Cc4ccncc4)CCO[C@@H]3C2)nc1`, with 7.83%.
